Laboratory results as given in BindingDB's records for doi:10.1021/jm00078a018 (Merck Research Laboratories, 1994).
Where a name gives a salt, the structure may show the parent alone.

Assay: Inhibition of binding of [125I]-CCK-8 to the cholecystokinin type B receptor

SMILES	IC50 [nM]
Cc1cccc(NC(=O)NC2N=C(c3ccccc3)c3ccccc3N(Cc3nnc(C)[nH]3)C2=O)c1 (configuration not stated) [1-[1-(5-Methyl-4H-[1,2,4]triazol-3-ylmethyl)-2-oxo-5-phenyl-2,3-dihydro-1H-benzo[e][1,4]diazepin-3-yl]-3-m-tolyl-urea]	9.7
CN1C(=O)C(NC(=O)NCc2cccc(C(C)(C)O)c2)N=C(c2ccccc2)c2ccccc21 (configuration not stated) [1-[3-(1-Hydroxy-1-methyl-ethyl)-benzyl]-3-(1-methyl-2-oxo-5-phenyl-2,3-dihydro-1H-benzo[e][1,4]diazepin-3-yl)-urea]	5.9
CN1C(=O)C(NC(=O)NC(C)(C)C)N=C(c2ccccc2)c2ccccc21 (configuration not stated) [1-tert-Butyl-3-(1-methyl-2-oxo-5-phenyl-2,3-dihydro-1H-benzo[e][1,4]diazepin-3-yl)-urea]	38000
Cc1cccc(NC(=O)NC2N=C(c3ccccc3)c3ccccc3N(CC(=O)N3CCN(C)CC3)C2=O)c1 (configuration not stated) [1-{1-[2-(4-Methyl-piperazin-1-yl)-2-oxo-ethyl]-2-oxo-5-phenyl-2,3-dihydro-1H-benzo[e][1,4]diazepin-3-yl}-3-m-tolyl-urea; hydrochloride]	3.5
Cc1cccc(NC(=O)NC2N=C(c3ccccc3)c3ccccc3N(CC(=O)ON3CCC[C@@H]3C(=O)O)C2=O)c1 (some centres not stated) [1-{2-[2-Oxo-5-phenyl-3-(3-m-tolyl-ureido)-2,3-dihydro-benzo[e][1,4]diazepin-1-yl]-acetoxy}-pyrrolidine-2-carboxylic acid]	130
Cc1cccc(NC(=O)NC2N=C(c3ccccc3)c3ccccc3N(CC(=O)Nc3ccncc3)C2=O)c1 (configuration not stated) [2-[2-Oxo-5-phenyl-3-(3-m-tolyl-ureido)-2,3-dihydro-benzo[e][1,4]diazepin-1-yl]-N-pyridin-4-yl-acetamide]	48
Cc1ccc(NC(=O)NC2N=C(c3ccccc3)c3ccccc3N(CC(=O)Nc3ccncc3)C2=O)cc1 (configuration not stated) [2-[2-Oxo-5-phenyl-3-(3-p-tolyl-ureido)-2,3-dihydro-benzo[e][1,4]diazepin-1-yl]-N-pyridin-4-yl-acetamide]	190
CCN(CC)C(=O)CN1C(=O)C(NC(=O)Nc2ccccc2Cl)N=C(c2ccccc2)c2ccccc21 (configuration not stated) [2-{3-[3-(2-Chloro-phenyl)-ureido]-2-oxo-5-phenyl-2,3-dihydro-benzo[e][1,4]diazepin-1-yl}-N,N-diethyl-acetamide]	3.8
CCN(CC)C(=O)CN1C(=O)C(NC(=O)Nc2ccc(Cl)cc2)N=C(c2ccccc2)c2ccccc21 (configuration not stated) [2-{3-[3-(4-Chloro-phenyl)-ureido]-2-oxo-5-phenyl-2,3-dihydro-benzo[e][1,4]diazepin-1-yl}-N,N-diethyl-acetamide]	0.6
CCN(CC)C(=O)C(C)N1C(=O)C(NC(=O)Nc2ccc(Cl)cc2)N=C(c2ccccc2)c2ccccc21 (configuration not stated) [2-{3-[3-(4-Chloro-phenyl)-ureido]-2-oxo-5-phenyl-2,3-dihydro-benzo[e][1,4]diazepin-1-yl}-N,N-diethyl-propionamide]	22
CCNC(=O)CN1C(=O)C(NC(=O)Nc2ccc(Cl)cc2)N=C(c2ccccc2)c2ccccc21 (configuration not stated) [2-{3-[3-(4-Chloro-phenyl)-ureido]-2-oxo-5-phenyl-2,3-dihydro-benzo[e][1,4]diazepin-1-yl}-N-ethyl-acetamide]	11
CN1C(=O)C(NC(=O)Nc2cccc(C(=O)O)c2)N=C(c2ccccc2)c2ccccc21 (configuration not stated) [3-[3-(1-Methyl-2-oxo-5-phenyl-2,3-dihydro-1H-benzo[e][1,4]diazepin-3-yl)-ureido]-benzoic acid]	9.7
COC(=O)c1cccc(NC(=O)N[C@@H]2N=C(c3ccccc3)c3ccccc3N(C)C2=O)c1 [3-[3-((R)-1-Methyl-2-oxo-5-phenyl-2,3-dihydro-1H-benzo[e][1,4]diazepin-3-yl)-ureido]-benzoic acid methyl ester]	8
CCOC(=O)CCN1C(=O)C(NC(=O)Nc2cccc(OC)c2)N=C(c2ccccc2)c2ccccc21 (configuration not stated) [3-{3-[3-(3-Methoxy-phenyl)-ureido]-2-oxo-5-phenyl-2,3-dihydro-benzo[e][1,4]diazepin-1-yl}-propionic acid ethyl ester]	1
COc1cccc(NC(=O)NC2N=C(c3ccccc3)c3ccccc3N(CCC(=O)O)C2=O)c1 (configuration not stated) [3-{3-[3-(3-Methoxy-phenyl)-ureido]-2-oxo-5-phenyl-2,3-dihydro-benzo[e][1,4]diazepin-1-yl}-propionic acid]	250
CCOC(=O)CCN1C(=O)C(NC(=O)Nc2ccc(Cl)cc2)N=C(c2ccccc2)c2ccccc21 (configuration not stated) [3-{3-[3-(4-Chloro-phenyl)-ureido]-2-oxo-5-phenyl-2,3-dihydro-benzo[e][1,4]diazepin-1-yl}-propionic acid ethyl ester]	5.9

SMILES	IC50 [nM]
CN1C(=O)C(NC(=O)Nc2ccc(C(=O)O)cc2)N=C(c2ccccc2)c2ccccc21 (configuration not stated) [4-[3-(1-Methyl-2-oxo-5-phenyl-2,3-dihydro-1H-benzo[e][1,4]diazepin-3-yl)-ureido]-benzoic acid]	> 100
CN1C(=O)C(NC(N)=O)N=C(c2ccccc2)c2ccccc21 (configuration not stated) [(1-Methyl-2-oxo-5-phenyl-2,3-dihydro-1H-benzo[e][1,4]diazepin-3-yl)-urea]	> 100000
COc1cccc(NC(=O)NC2N=C(c3ccccc3)c3ccccc3N(CC[N+](C)(C)C)C2=O)c1 (configuration not stated) [(2-{3-[3-(3-Methoxy-phenyl)-ureido]-2-oxo-5-phenyl-2,3-dihydro-benzo[e][1,4]diazepin-1-yl}-ethyl)-trimethyl-ammonium; iodide]	1100
CN1C(=O)C(NC(=O)Nc2ccc(Cl)cc2)N=C(c2ccccc2)c2ccccc21 [(R)-1-(4-Chloro-phenyl)-3-(1-methyl-2-oxo-5-phenyl-2,3-dihydro-1H-benzo[e][1,4]diazepin-3-yl)-urea]	81
CCN(CC)CC(=O)OCCN1C(=O)C(NC(=O)Nc2cccc(C)c2)N=C(c2ccccc2)c2ccccc21 (configuration not stated) [Diethylamino-acetic acid 2-[2-oxo-5-phenyl-3-(3-m-tolyl-ureido)-2,3-dihydro-benzo[e][1,4]diazepin-1-yl]-ethyl ester]	5.6
CCN(CC)C(=O)CN1C(=O)C(NC(=O)Nc2cccc(OC)c2)N=C(c2ccccc2)c2ccccc21 (configuration not stated) [N,N-Diethyl-2-{3-[3-(3-methoxy-phenyl)-ureido]-2-oxo-5-phenyl-2,3-dihydro-benzo[e][1,4]diazepin-1-yl}-acetamide]	0.22
O=C(CN1C(=O)C(NC(=O)Nc2ccc(Cl)cc2)N=C(c2ccccc2)c2ccccc21)NCc1ccccc1 (configuration not stated) [N-Benzyl-2-{3-[3-(4-chloro-phenyl)-ureido]-2-oxo-5-phenyl-2,3-dihydro-benzo[e][1,4]diazepin-1-yl}-acetamide]	102
Cc1cccc(NC(=O)NC2N=C(c3ccccc3)c3ccccc3N(CCOC(=O)CCC(=O)O)C2=O)c1 (configuration not stated) [Succinic acid mono-{2-[2-oxo-5-phenyl-3-(3-m-tolyl-ureido)-2,3-dihydro-benzo[e][1,4]diazepin-1-yl]-ethyl} ester]	7.2
Cc1cccc(NC(=O)NC2N=C(c3ccccc3)c3ccccc3N(CC(=O)O)C2=O)c1 (configuration not stated) [[2-Oxo-5-phenyl-3-(3-m-tolyl-ureido)-2,3-dihydro-benzo[e][1,4]diazepin-1-yl]-acetic acid]	380
CCOC(=O)CN1C(=O)C(NC(=O)c2ccccc2Cl)N=C(c2ccccc2F)c2ccccc21 (configuration not stated) [[3-(2-Chloro-benzoylamino)-5-(2-fluoro-phenyl)-2-oxo-2,3-dihydro-benzo[e][1,4]diazepin-1-yl]-acetic acid ethyl ester]	3200
CCOC(=O)CN1C(=O)C(NC(=O)N[C@@H](C)c2ccccc2)N=C(c2ccccc2)c2ccccc21 (some centres not stated) [{2-Oxo-5-phenyl-3-[3-(1-phenyl-ethyl)-ureido]-2,3-dihydro-benzo[e][1,4]diazepin-1-yl}-acetic acid ethyl ester]	> 100
CN1C(=O)C(NC(=O)Nc2cccc(CNC(=O)OC(C)(C)C)c2)N=C(c2ccccc2)c2ccccc21 (configuration not stated) [{3-[3-(1-Methyl-2-oxo-5-phenyl-2,3-dihydro-1H-benzo[e][1,4]diazepin-3-yl)-ureido]-benzyl}-carbamic acid tert-butyl ester]	170
COC(=O)Cc1cccc(NC(=O)NC2N=C(c3ccccc3)c3ccccc3N(C)C2=O)c1 (configuration not stated) [{3-[3-(1-Methyl-2-oxo-5-phenyl-2,3-dihydro-1H-benzo[e][1,4]diazepin-3-yl)-ureido]-phenyl}-acetic acid methyl ester]	33
CN1C(=O)C(NC(=O)Nc2cccc(CC(=O)O)c2)N=C(c2ccccc2)c2ccccc21 (configuration not stated) [{3-[3-(1-Methyl-2-oxo-5-phenyl-2,3-dihydro-1H-benzo[e][1,4]diazepin-3-yl)-ureido]-phenyl}-acetic acid]	4.9
O=C(Nc1ccc(Cl)cc1)NC1N=C(c2ccccc2)c2ccccc2N(CC(=O)OCc2ccccc2)C1=O (configuration not stated) [{3-[3-(4-Chloro-phenyl)-ureido]-2-oxo-5-phenyl-2,3-dihydro-benzo[e][1,4]diazepin-1-yl}-acetic acid benzyl ester]	44
O=C(O)CN1C(=O)C(NC(=O)Nc2ccc(Cl)cc2)N=C(c2ccccc2)c2ccccc21 (configuration not stated) [{3-[3-(4-Chloro-phenyl)-ureido]-2-oxo-5-phenyl-2,3-dihydro-benzo[e][1,4]diazepin-1-yl}-acetic acid]	72
